SMILES strings stand for the structures.

The nature of data set [1]: Evaporation of active ingredient in thermogravimetric analyzer. The following applies: during 1 hour at 30° C.; continuous flow of N2 gas. In kind it is physicochemical. The procedure: The evaporation of 5-ethoxy-3-methyl-1H-pyrazole and the corresponding Zn MOF of 5-ethoxy-3-methyl-1H-pyrazole, i.e. Zinc-5-Ethoxy-3-Methyl-Pyrazolate, has been measured in a thermogravimetric analyzer instrument by the following procedure. A few milligrams of the test substance were positioned on the probe of the thermogravimetric analyzer, in a continuous flow of N2 gas. After equilibrating the system to 30° C., the weight of the sample was monitored over a time period of 65 minutes at a temperature of 30° C.

In data set [2] the test system is nitrification in soil Limburgerhof (microbial community). Kind of data set: Soil incubation with inhibitor mixed into ammonium sulfate nitrate melt (Example 5). The note with it: after 14 days, added to ASS melt at 125° C. In kind it is cell-based. The procedure:
The MOF of Example 3 was tested as follows in terms of the inhibition of nitrification: The nitrification inhibition capacity was tested after incubation of soil. In the experiment 50 g soil (soil Limburgerhof with pH (CaCl2)) 6, 73% sand, 23% silt, 4% clay, which is classified according to FAO as sandy loam) was filled into 250 ml plastic bottles and was moistened to 50% water holding capacity. The soil was incubated at 20° C. for about one week prior to the experiments to activate the microbial community. Ammonium sulfate nitrate (ASS) was heated to 125° C. in presence of 4% water. After the ASS had melted, Zinc-5-Ethoxy-3-Methyl-Pyrazolate or the underlying pyrazole compound was added and was mixed in for 1 minute. Afterwards, the melted ASS was poured onto a metal plate and cooled down to room temperature. Depending on treatment, 26.3 mg the treated ASS were milled and added to the soil and everything was mixed well. […] The fertilizer amount used for the experiment was calculated to contain 5 mg nitrogen in the form of ammonium sulfate-N(NH4—N)). […] Ammonium and nitrate content is then analyzed in the filtrate using an autoanalyzer. Ammonium was quantified via an indophenol blue dye at 660 nm, and nitrate via an azo dye at 540 nm. The nitrification inhibition is expressed as % of NH4—N recovery from fertilized NH4—N-(100%) after subtraction of unfertilized control soil.

The test system of data set [3] is nitrification in soil (microbial biomass). Kind of data set: Soil incubation test for inhibition of nitrification (Example 4). In kind it is cell-based. The note with it: n=4. As to the method: 100 g soil is filled into 500 ml plastic bottles (e.g. soil sampled from the field) and is moistened to 50% water holding capacity. The soil is incubated at 20° C. for two weeks to activate the microbial biomass. 1 ml test solution, containing the components of the mixture in the appropriate concentration (usually from 0.1 to 3% of nitrogen N), or DMSO and 10 mg nitrogen in the form of ammoniumsulfate-N is added to the soil and everything mixed well. Bottles are capped but loosely to allow air exchange. The bottles are then incubated at 20° C. for 0, 14 and 28 days.
For analysis, 300 ml of a 1% K2SO4-solution is added to the bottle containing the soil and shaken for 2 hours in a horizontal shaker at 150 rpm. Then the whole solution is filtered through a filter (Macherey-Nagel Filter MN 807%). Ammonium and nitrate content is then analyzed in the filtrate in an autoanalyzer at 550 nm (Merck, AA11).
The inhibition (NI@a specified concentration) is calculated as follows:
4 tests regarding the inhibition of nitrification were performed in each case (n=4).
The tested amounts were 0.3 and 1% by weight of component (ii) of the MOF relative to NH4—N.

The test system of another data set is N2O emission. In words: N2O inhibition in vegetation hall over 10 days using ammonium sulfate as fertilizer. The note with it: 10 days cumulative. The source says:
N2O inhibition in vegetation hall over 10 days (cumulative values) using AS (ammonium sulfate) as fertilizer: […]

The mark [4] stands for this setting: 0.3 wt.-% of pyrazolate relative to NH4—N, after 14 days.
Setting [5] is: 0.3 wt.-% of pyrazolate relative to NH4—N, after 28 days.
The mark [6] stands for this setting: 1.0 wt.-% of pyrazolate relative to NH4—N, after 14 days.
The mark [7] stands for this setting: 1.0 wt.-% of pyrazolate relative to NH4—N, after 28 days.

`CCOc1cc(C)n[nH]1` [5-ethoxy-3-methyl-1H-pyrazole]: the “% loss (evaporation of active ingredient)” value in data set [1] came to 5.6%. For the same molecule, the “Residual amounts of NH4 (% of NH4—N recovery from fertilized NH4—N)” value in data set [2] (0.3 wt.-% relative to NH4—N) was determined as 45.4%; in data set [2] (0.8 wt.-% relative to NH4—N), 57.0%.

As for `COc1cc(C)n[nH]1` [5-Methoxy-3-Methyl-1H-Pyrazole], the “Reduction of NO3− production” value in data set [3] (setting [4]) was 75; in data set [3] (setting [5]), 40; in data set [3] (setting [6]), 88; in data set [3] (setting [7]) it was 74. Also, the “Residual amounts of NH4” value worked out at 70 in data set [3] (setting [4]), 34 in data set [3] (setting [5]), 90 in data set [3] (setting [6]) and 68 in data set [3] (setting [7]). Moreover, the “% Emission (N2O)” value is on record as 10.4% in the data set on N2O emission (0.3 wt.-% relative to NH4—N) and 5.0% in the data set with N2O emission (1.0 wt.-% relative to NH4—N). The “% Inhibition (N2O)” value with N2O emission (0.3 wt.-% relative to NH4—N) is recorded as 89.6%; with N2O emission (1.0 wt.-% relative to NH4—N) it was 95.0%. In addition, the results for the “Emission cumulative minus background (N2O)” value in the data set on N2O emission (0.3 wt.-% relative to NH4—N) and in the data set with N2O emission (1.0 wt.-% relative to NH4—N) were 393 and 191, respectively.
